{
  "source": "patent US8431540B2",
  "about": "“Modified lysine-mimetic compounds” (Zealand Pharma A/S, priority 2005, dated 2013)",
  "key": {"[1]": {"system": "dogs subjected to a 60-min coronary artery occlusion and 4 hr reperfusion", "experiment": "Canine infarct size and reperfusion arrhythmia model", "assay_type": "in vivo", "details": "dog, two highest doses; for Total incidence of VT: IV 10-min before reperfusion, controls 23.0±6.1; for Total PVC's: during reperfusion, control 11.1±1.6%; for Infarct size, expressed as percent of left ventricle: controls 19.0±3.5", "procedure": "Compound 2 was tested in dogs subjected to a 60-min coronary artery occlusion and 4 hr reperfusion, as described by Hennan et al. ([…]., 317, 236-43 (2006)). Compound 2 was administered IV 10-min before reperfusion as a bolus+IV infusion at doses of: 0.25 μg/kg bolus+0.19 μg/kg/hr infusion (n=6); 2.5 μg/kg bolus+1.9 μg/kg/hr infusion (n=7); 25 μg/kg bolus+19 μg/kg/hr infusion (n=6); 75 μg/kg bolus+57 μg/kg/hr infusion (n=5); vehicle control (n=7). Premature ventricular complexes (PVC's) were quantified during reperfusion. Four or more consecutive PVC's was defined as ventricular tachycardia (VT)."}, "[2]": {"system": "C6 glioma cells overexpressing connexin43", "experiment": "In vitro cell swelling and dye uptake model (simulated ischemia)", "assay_type": "cell-based", "procedure": "In this experiment, the effect of Compound 2 on calcein dye-uptake induced by metabolic inhibition in cultured C6 glioma cells overexpressing connexin43 was studied. Cells were incubated under control conditions and during simulated ischemia (SI) for 40 minutes in the presence of calcein (200 μM). Following incubation the cells were subjected to epifluorescence microscopy to determine the uptake of calcein. Incubation of C6 cells in SI medium increased dye-uptake to 5-fold above control values."}, "[3]": {"system": "isolated rat atrial strip", "experiment": "Isolated atrial strip model of metabolic stress induced atrial conduction slowing", "details": "rat left atrial strip; 40 min glucose-free, non-oxygenated buffer; control decreased by 22%", "procedure": "Peptides suitable for administration to cardiac cells can be identified in an in vitro model as described by Haugan et al. (J. Cardiovasc. Electrophysiol., 16, 537-545 (2005)).\nRats (300-400 g) are killed by a sharp blow on the neck. The heart is rapidly excised and transferred to a small dish containing 37° oxygenated modified Tyrodes buffer containing (in mM): NaCl 136, KCl 4, MgCl2 0.8, CaCl2 1.8 HEPES 5, MES 5, Glucose 6, pH 7.3. The left atrium is carefully dissected and a tissue sample of approximately 2×6 mm is taken from the left atrial appendage and placed in a tissue chamber (volume 5 ml), (Steiert Organ Bath, Hugo Sach Electronic, Germany). The chamber is perfused throughout the study with 37° C. oxygenated Tyrodes buffer at a rate of 10 ml/min.\nA bipolar stimulation electrode (Teflon coated stainless steel, diameter […]) is placed at one end of the tissue. Stimulation is performed at 1 Hz using rectangular pulses at double threshold (duration of stimulus 0.2 ms) delivered by a stimulator (Hugo Sachs, Type 215) through an isolation unit (Universal Isolated Stimulator Unit type 263, Hugo Sachs, Germany).\nTwo separate microelectrodes of pure iridium (World Precision Instruments, tip-impedance 3.5-4.0 MΩ) are placed on a line along the long-axis of the preparation for recording of atrial CV. […]"}, "[4]": {"details": "first value (25 μg/kg bolus+19 μg/kg/hr infusion)"}, "[5]": {"details": "second value (75 μg/kg bolus+57 μg/kg/hr infusion)"}},
  "data": [
    {"smiles": "NCC(=O)N1C[C@H](NC(=O)c2ccccc2)C[C@H]1C(=O)O", "note": "[Compound 2, (2S4R)1-(2-Amino-acetyl)-4-benzoylamino-pyrrolidine-2-carboxylic acid]", "values": [
      {"measurement": "half-life in male rat liver microsomes", "value": "greater than 30 minutes"},
      {"measurement": "Total incidence of VT", "setting": "[1]; [4]", "value": "1.7±0.8", "unit": "events"},
      {"measurement": "Total incidence of VT", "setting": "[1]; [5]", "value": "2.2±1.4", "unit": "events"},
      {"measurement": "Total PVC's", "setting": "[1]; [4]", "value": "2.0±0.7", "unit": "%"},
      {"measurement": "Total PVC's", "setting": "[1]; [5]", "value": "1.8±0.8", "unit": "%"},
      {"measurement": "Infarct size, expressed as percent of left ventricle", "setting": "[1]; [4]", "value": "7.9±1.5", "unit": "%"},
      {"measurement": "Infarct size, expressed as percent of left ventricle", "setting": "[1]; [5]", "value": "7.1±0.8", "unit": "%"},
      {"measurement": "relative reduction of the SI inducible calcein dye-uptake response", "setting": "[2]; 100 μM compound, simulated ischemia 40 minutes, calcein 200 μM, p<0.05 vs. vehicle", "value": 32, "unit": "%"},
      {"measurement": "calcein dye-uptake during simulated ischemia", "setting": "[2]; C6 glioma cells overexpressing connexin43, simulated ischemia 40 minutes", "value": "dose-dependently inhibited"},
      {"measurement": "cell swelling during the 40 min stress period", "setting": "[2]; C6 glioma cells, control cells exhibited cell swelling", "value": "did not"},
      {"measurement": "atrial conduction velocity change compared to baseline", "setting": "[3]", "value": "did not change compared to baseline"}
    ]}
  ]
}
